From US5663182A, “Antipsychotic method” (priority 1996, dated 1997)
Structures can show the parent of a compound that is named as a salt.

What was measured:
muscarinic receptors = test: 3H-oxotremorine-M binding assay; conditions: 3 nM 3H-oxotremorine-M, rat cerebral cortical membranes, 15 min 25° C.; read-out: Inhibition of 3H-Oxo
Experimental: Each compound was tested to determine the affinity of the compound for the muscarinic receptors using the following procedure.
For each in vitro binding, male Sprague-Dawley (Harlan Sprague-Dawley, Indianapolis, Ind.) rats weighing from about 100 to about 150 grams each were sacrificed by decapitation. The brains were quickly removed and the cerebral cortex were dissected from the brain. The cerebral cortex tissue was homogenized in 10 volumes of 0.32 M sucrose and […] about 10 minutes at about 1000 x g. The supernatant was centrifuged at about 12,000 x g for about 10 minutes and the resulting pellet was resuspended in 20 mM tris-Cl, pH 7.4. The resuspended pellet was centrifuged again for about 10 minutes at about 50,000 x g. The resulting homogenate was preincubated for about 10 minutes at about 25° C. and centrifuged again for about 10 minutes at about 50,000 x g. The pellet was resuspended at 1 gram of pellet per 3 ml of buffer and frozen at about -80° C. until used.
The aforementioned homogenates mixture was incubated for about 15 minutes at about 25° C. and then the homogenates were filtered through glass filters (Whatman, GF/C) with vacuum. The filters were washed 3 times with about 2 ml of cold tris-Cl buffer, and placed in scintillation vials containing about 10 ml of scintillation fluid (Ready Protein+, Beckman, Fullerton, Calif.). Radioactivity trapped on the filters was determined by liquid scintillation spectrometry. Nonspecific binding was determined using 1 μM atropine. […] DeLean, A. et al. Am.

Rats = test: Conditioned avoidance behavior in rats; assay type: in vivo, rat; conditions: screening dose 3.0 mg/kg s.c. 30 min before session
Text: In a conditioned avoidance test, animals learn to respond during a conditioned stimulus in order to avoid mild shock presentation. A response during the conditioned stimulus is termed an avoidance respone, a response during shock is termed an escape response; a response failure is when the animal fails to respond during either the conditioned stimlus or the shock presentation and is indicative of motor impairment. […] Antipsychotic drugs decrease the percentage of avoidance responses without interfering with the ability of the animal to respond since the animals do emit escape responses. The percentage of response failures is considered a measure of motor impairment.
Rats were required to press a response lever in an experimental chamber in order to avoid or escape foot-shock. Each experimental session consisted of 50 trials. During each trial, the chamber was illuminated and a tone presented for a maximum of 10 sec. A response during the tone immediately terminated the tone and the houselight, ending the trial. In the absence of a response during the tone alone, tone+foot-shock (2.0 mA) was presented for a maximum of 10 sec. A response during shock presentation immediately terminated the shock, the tone and the houselight, ending the trial.
For drug screening, a dose of 3.0 mg/kg was administered s.c. 30 min before the start of the experimental session.

Compound | IC50 (muscarinic receptors) [nM] | Conditioned Avoidance % Avoidance Responses (Rats) [%] | Conditioned Avoidance % Avoidance Responses (Rats; 3 mg/kg) [%]
CCOc1nsnc1[C@H]1CN2CCC[C@H]1C2 (relative stereo) [Compound 19, Exo-6-(3-ethoxy-1,2,5-thiadiazol-4-yl)-1-azabicyclo[3.2.1]octane oxalate] | 1.2 | 73 | –
CCCCCCSc1nsnc1[C@H]1CN2CCC[C@H]1C2 (relative stereo) [Compound 29, Exo-6-(3-hexylthio-1,2,5-thiadiazol-4-yl)-1-azabicyclo[3.2.1]octane oxalate] | 1.2 | 29 | –
CCCCSc1nsnc1[C@H]1CN2CCC[C@H]1C2 (relative stereo) [Compound 30, Exo-6-(3-butylthio-1,2,5-thiadiazol-4-yl)-1-azabicyclo[3.2.1]octane oxalate] | 0.4 | 32 | –
CCCCCSc1nsnc1[C@H]1CN2CCC[C@H]1C2 (relative stereo) [Compound 31, Exo-6-(3-pentylthio-1,2,5-thiadiazol-4-yl)-1-azabicyclo[3.2.1]octane oxalate] | 1.8 | 1 | –
CCSc1nsnc1[C@H]1CN2CCC[C@H]1C2 (relative stereo) [Compound 32, Exo-6-(3-ethylthio-1,2,5-thiadiazol-4-yl)-1-azabicyclo[3.2.1]octane oxalate] | 1.3 | 46 | –
CCCSc1nsnc1[C@H]1CN2CCC[C@H]1C2 (relative stereo) [Compound 58, Exo-6-(3-propylthio-1,2,5-thiadiazol-4-yl)-1-azabicyclo[3.2.1]octane oxalate] | 0.8 | 41 | –
CCCCCOc1nsnc1[C@H]1CN2CCC[C@H]1C2 (relative stereo) [Compound 59, Exo-6-(3-pentyloxy-1,2,5-thiadiazol-4-yl)-1-azabicyclo[3.2.1]octane oxalate] | 1 | 12 | –
CSc1nsnc1[C@H]1CN2CCC[C@H]1C2 (relative stereo) [Compound 74, Exo-6-(3-methylthio-1,2,5-thiadiazol-4-yl)-1-azabicyclo[3.2.1]octane oxalate] | 1.4 | 22 | –
CC(C)CCCSc1nsnc1[C@H]1CN2CCC[C@H]1C2 (relative stereo) [Compound 76, Exo-6-(3-isohexylthio-1,2,5-thiadiazol-4-yl)-1-azabicyclo[3.2.1]octane oxalate] | 7.7 | 28 | –
CC(C)CCSc1nsnc1[C@H]1CN2CCC[C@H]1C2 (relative stereo) [Compound 77, Exo-6-(3-isopentylthio-1,2,5-thiadiazol-4-yl)-1-azabicyclo[3.2.1]octane] | 2.7 | 85 | –
N#Cc1ccc(CSc2nsnc2[C@H]2CN3CCC[C@H]2C3)cc1 (relative stereo) [Compound 82, Exo-6-(3-(4-cyanobenzylthio)-1,2,5-thiadiazol-4-yl)-1-azabicyclo[3.2.1]octane oxalate] | 1.3 | 24 | –
CCCOc1nsnc1[C@H]1CN2CCC[C@H]1C2 (relative stereo) [Compound 119, Exo-6-(3-propoxy-1,2,5-thiadiazol-4-yl)-1-azabicyclo[3.2.1]octane oxalate] | 0.9 | 29 | –
CCCCOc1nsnc1[C@H]1CN2CCC[C@H]1C2 (relative stereo) [Compound 120, Exo-6-(3-butoxy-1,2,5-thiadiazol-4-yl)-1-azabicyclo[3.2.1]octane oxalate] | 0.9 | 27 | –
CCCCCCOc1nsnc1[C@H]1CN2CCC[C@H]1C2 (relative stereo) [Compound 122, Exo-6-(3-hexyloxy-1,2,5-thiadiazol-4-yl)-1-azabicyclo[3.2.1]octane oxalate] | 2.1 | 1 | –
c1ccc(OCCSc2nsnc2[C@H]2CN3CCC[C@H]2C3)cc1 (relative stereo) [Compound 133, Exo-6-(3-(2-phenoxyethylthio)-1,2,5-thiadiazol-4-yl)-1-azabicyclo[3.2.1]octane oxalate] | 1.3 | 1 | –
CCCCSc1nsnc1C1CN2CCC1CC2.O=C(O)C(O)C(O)C(=O)O (single isomer, unassigned) [Compound 56, (+) 3-(3-Butylthio-1,2,5-thiadiazol-4-yl)-1-azabicyclo[2.2.2]octane (-)D-tartrate] | 0.4 | 6 | –
CCCCSc1nsnc1C1CN2CCCC1C2 (single isomer, unassigned) [Compound 111, (-)-Exo-6-(3-butylthio-1,2,5-thiadiazol-4-yl)-1-azabicyclo[3.2.1]octane (+) L-tartrate] | 1 | – | 8
CCCCSc1nsnc1C1CN2CCCC1C2 (single isomer, unassigned) [Compound 112, (+)-Exo-6-(3-butylthio-1,2,5-thiadiazol-4-yl)-1-azabicyclo[3.2.1]octane (-) D-tartrate] | 0.6 | – | 2
CCCSc1nsnc1C1CN2CCCC1C2 (single isomer, unassigned) [Compound 114, (+)-Exo-6-(3-propylthio-1,2,5-thiadiazol-4-yl)-1-azabicyclo[3.2.1]octane (-) D-tartrate] | 0.45 | – | 39
CCCSc1nsnc1C1CN2CCCC1C2 (single isomer, unassigned; (+)) [Compound 113, (+)-Exo-6-(3-propylthio-1,2,5-thiadiazol-4-yl)-1-azabicyclo[3.2.1]octane (+) L-tartrate] | 0.8 | – | 19
FC(F)(F)CCCSc1nsnc1C1CN2CCCC1C2 (single isomer, unassigned; (+)) [Compound 167, (+)-Exo-6-(3-(4,4,4-trifluorobutylthio)-1,2,5-thiadiazol-4-yl)-1-azabicyclo-[3.2.1]octane oxalate] | 0.76 | – | 56
FC(F)(F)CCCSc1nsnc1C1CN2CCCC1C2 (single isomer, unassigned; (-)) [Compound 130, (-)-Exo-6-(3-(4,4,4-trifluoro-1-butylthio)-1,2,5-thiadiazol-4-yl)-1-azabicyclo[3.2.1]octane oxalate] | 1.8 | – | 43
CCOc1nsnc1C1CN2CCC1CC2.O=C(O)/C=C/C(=O)O (stereo not shown) [Compound 9, 3-(3-Ethoxy-1,2,5-thiadiazol-4-yl)-1-azabicyclo[2.2.2]octane fumarate] | 2.1 | 65 | –
CCCCCCOc1nsnc1C1CN2CCC1CC2.O=C(O)/C=C/C(=O)O (stereo not shown) [Compound 11, 3-(3-Hexyloxy-1,2,5-thiadiazol-4-yl)-1-azabicyclo[2.2.2]octane fumarate] | 6 | 11 | –
CCCCSc1nsnc1C1CN2CCC1CC2.O=C(O)/C=C/C(=O)O (stereo not shown) [Compound 13, 3-(3-Butylthio-1,2,5-thiadiazol-4-yl)-1-azabicyclo[2.2.2]octane fumarate] | 1.9 | 18 | –
CCCCOc1nsnc1C1CN2CCC1CC2.O=C(O)C(=O)O (stereo not shown) [Compound 46, 3-(3-Butoxy-1,2,5-thiadiazol-4-yl)-1-azabicyclo[2.2.2]octane oxalate] | 1.6 | 30 | –
CCSc1nsnc1C1CN2CCC1CC2.O=C(O)C(=O)O (stereo not shown) [Compound 52, 3-(3-Ethylthio-1,2,5-thiadiazol-4-yl)-1-azabicyclo[2.2.2]octane oxalate] | 1.8 | 63 | –
CCCSc1nsnc1C1CN2CCC1CC2.O=C(O)C(=O)O (stereo not shown) [Compound 53, 3-(3-Propylthio-1,2,5-thiadiazol-4-yl)-1-azabicyclo[2.2.2]octane oxalate] | 0.9 | 41 | –
O=C(O)/C=C/C(=O)O.c1ccc(OCCSc2nsnc2C2CN3CCC2CC3)cc1 (stereo not shown) [Compound 102, 3-(3-(2-Phenoxyethylthio)-1,2,5-thiadiazol-4-yl)-1-azabicyclo[2.2.2]octane fumarate] | 4.5 | 3 | –
